According to patent US6602900B2, “Cyclopentane heptan(ENE)oic acid, 2-heteroarylalkenyl derivatives as therapeutic agents” (Allergan, Inc., priority 1992, dated 2003):
pEC50: −log10 of the molar value. Read-outs that look alike come from different tables or passages of the source.

Columns and labels:
[1] = tested on: PGF2α-sensitive receptor provisionally termed FPVASC; test: Relaxation of smooth muscle of isolated rabbit jugular vein; type: cell-based; conditions: for EC50: isolated rabbit jugular vein relaxation, read-out: EC50 (nM) FPVASC; for pEC50: read-out: rbFPv/EP4, Table of compounds 17a-25, unit inferred
Experimental: (§1) Activity at different prostanoid receptors was measured in vitro in isolated smooth muscle preparations. FP-activity was measured as contraction of the isolated feline iris sphincter. EP1-activity was measured as contraction of the longitudinal smooth muscle of the isolated guinea pig ileum. EP3-activity was measured as inhibition of the twitch response induced by electrical field stimulation in the isolated guinea pig was deferens and as contraction of the longitudinal smooth muscle of the isolated chick ileum. Activity was also measured as relaxation of smooth muscle of isolated rabbit jugular vein a preparation which appears to contain a unique PGF2α-sensitive receptor provisionally termed FPVASC. TP-vasoconstrictor activity was measured as contraction of rings of the isolated rat thoracic aorta. Effects on platelets from healthy human donors were measured by incubating platelet-rich plasma with the compounds described herein. Inhibition of aggregation was determined by the ability of the compounds described herein to inhibit platelet aggregation in platelet-rich plasma induced by 20 μM ADP.

EP1 receptor = biological target: T1, EP1 receptor (Cavia porcellus, UniProt A0A286XHJ6); test: EP1-activity: contraction of the longitudinal smooth muscle of the isolated guinea pig ileum; type: cell-based
T1 sequence (A0A286XHJ6 1-405): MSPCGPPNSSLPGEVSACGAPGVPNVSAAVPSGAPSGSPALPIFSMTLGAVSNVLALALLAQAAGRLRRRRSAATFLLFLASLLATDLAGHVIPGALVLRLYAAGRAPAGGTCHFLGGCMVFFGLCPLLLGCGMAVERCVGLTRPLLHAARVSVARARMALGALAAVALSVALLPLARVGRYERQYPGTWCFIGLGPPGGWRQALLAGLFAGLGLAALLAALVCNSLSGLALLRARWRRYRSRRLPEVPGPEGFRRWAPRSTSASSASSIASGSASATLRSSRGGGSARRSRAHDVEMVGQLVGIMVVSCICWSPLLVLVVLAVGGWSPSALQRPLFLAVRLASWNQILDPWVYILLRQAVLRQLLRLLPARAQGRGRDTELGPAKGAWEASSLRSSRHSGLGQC
Experimental: as §1

EP3 receptor = biological target: T2, EP3 receptor (UniProt A0A286XLZ9); test: EP3-activity: inhibition of the twitch response induced by electrical field stimulation in the isolated guinea pig vas deferens; type: cell-based; conditions: pa = printed beside some values, read-out: EC50 (nM) EP3, first value of the cell
T2 sequence (A0A286XLZ9 1-363): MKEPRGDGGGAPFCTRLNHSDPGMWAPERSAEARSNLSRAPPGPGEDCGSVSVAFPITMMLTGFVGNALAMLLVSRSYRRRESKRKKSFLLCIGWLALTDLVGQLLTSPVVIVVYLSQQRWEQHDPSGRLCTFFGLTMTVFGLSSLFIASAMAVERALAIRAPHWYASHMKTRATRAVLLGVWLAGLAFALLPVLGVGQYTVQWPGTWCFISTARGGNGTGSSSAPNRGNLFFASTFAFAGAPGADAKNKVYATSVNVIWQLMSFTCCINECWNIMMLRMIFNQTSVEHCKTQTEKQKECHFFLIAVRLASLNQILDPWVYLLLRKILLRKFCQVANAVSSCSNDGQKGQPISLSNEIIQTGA
Experimental: as §1

TP receptor = biological target: T3, TP receptor (Rattus norvegicus, UniProt P34978); test: TP-vasoconstrictor activity: contraction of rings of the isolated rat thoracic aorta; type: cell-based; conditions: for EC50: isolated rat thoracic aorta contraction, read-out: EC50 (nM) TP; for pEC50: Table of compounds 17a-25, unit inferred, read-out: rtTPva
T3 construct: rings of the isolated rat thoracic aorta; from tissue; host or cells: isolated rat thoracic aorta rings
T3 sequence (P34978 1-341): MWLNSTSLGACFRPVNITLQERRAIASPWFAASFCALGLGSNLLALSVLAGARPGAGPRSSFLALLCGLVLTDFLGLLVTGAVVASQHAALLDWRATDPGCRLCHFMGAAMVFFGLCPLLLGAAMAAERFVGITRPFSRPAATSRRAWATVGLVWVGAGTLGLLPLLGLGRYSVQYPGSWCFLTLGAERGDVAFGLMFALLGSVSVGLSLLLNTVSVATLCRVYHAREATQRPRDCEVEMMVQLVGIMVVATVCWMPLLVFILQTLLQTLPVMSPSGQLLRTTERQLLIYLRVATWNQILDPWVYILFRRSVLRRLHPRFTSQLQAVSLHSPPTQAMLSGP
Experimental: as §1

Dog eye (miosis) = test: Miosis in dogs after topical dosing; type: in vivo
Dog eye (hyperemia) = test: Ocular surface hyperemia in dogs after topical dosing; type: in vivo; set-up: scale not given here

EC50 [1] [nM]	EC50 (EP1 receptor) [nM]	EC50 (EP3 receptor) [nM]	EC50 (TP receptor) [nM]	SMILES	pEC50 [1]	other results
3.6	> 10000	> 10000	> 10000	NC(=O)CCC/C=C\C[C@@H]1[C@@H](/C=C/[C@@H](O)CCc2ccsc2)[C@H](O)C[C@@H]1O	–	–
58	–	–	–	O=C(O)CCC/C=C\C[C@@H]1[C@@H](/C=C/[C@H](O)CCc2ccsc2)[C@H](O)C[C@@H]1O	–	–
–	–	–	–	NC(=O)CCC/C=C\C[C@@H]1[C@@H](/C=C/[C@H](O)CCc2ccsc2)[C@H](O)C[C@@H]1O	–	Miosis (Dog eye (miosis); 0.1%): pin; Hyp (hyperemia score) (Dog eye (hyperemia); 0.1%): 0.72
2.1	> 10000	189	~10000	CO[C@H](/C=C/[C@@H]1[C@@H](C/C=C\CCCC(=O)O)[C@@H](O)C[C@H]1O)CCc1ccsc1	–	Miosis (Dog eye (miosis); 0.1%): pinpt; Hyp (hyperemia score) (Dog eye (hyperemia); 0.1%): 0.83
545	> 10000	105	4740	O=C(O)CCC/C=C\C[C@@H]1[C@@H](CC[C@@H](O)CCc2ccsc2)[C@H](O)C[C@@H]1O	–	–
–	> 10000	83	5400	O=C(O)CCC/C=C\C[C@@H]1[C@@H](/C=C/[C@@H](O)CCc2ccoc2)[C@H](O)C[C@@H]1O	–	Miosis (Dog eye (miosis); 0.01%): mild; Miosis (Dog eye (miosis); 0.1%): pinpoint; Hyp (hyperemia score) (Dog eye (hyperemia); 0.01%): 0.83; Hyp (hyperemia score) (Dog eye (hyperemia); 0.1%): 0.38
> 5880	–	–	–	O=C(O)CCC/C=C\C[C@@H]1[C@@H](CCC(O)CCc2ccoc2)[C@H](O)C[C@@H]1O (stereo partly shown)	–	–
> 7690	> 10000	44	~10000	O=C(O)CCC/C=C\C[C@@H]1[C@@H](/C=C/[C@@H](O)CCc2ccco2)[C@H](O)C[C@@H]1O	–	Miosis (Dog eye (miosis); 0.01%): mild; Miosis (Dog eye (miosis); 0.1%): pinpoint; Hyp (hyperemia score) (Dog eye (hyperemia); 0.01%): 0.54; Hyp (hyperemia score) (Dog eye (hyperemia); 0.1%): 0.67
> 833	> 10000	355	3980	Cc1sccc1CC[C@H](O)/C=C/[C@@H]1[C@@H](C/C=C\CCCC(=O)O)[C@@H](O)C[C@H]1O	–	–
> 69000	–	9000	–	O=C(O)CCC/C=C\C[C@@H]1[C@@H](/C=C/[C@@H](O)CCc2cc3ccccc3o2)[C@H](O)C[C@@H]1O	–	Miosis (Dog eye (miosis); 0.01%): 0; Miosis (Dog eye (miosis); 0.1%): 0; Hyp (hyperemia score) (Dog eye (hyperemia); 0.01%): 0.17; Hyp (hyperemia score) (Dog eye (hyperemia); 0.1%): 0.13
2660	–	~10000	–	O=C(O)CCC/C=C\C[C@@H]1[C@@H](/C=C/[C@@H](O)CCc2cc3ccccc3s2)[C@H](O)C[C@@H]1O	–	–
47	> 10000	1000	2450	O=C(O)CCC/C=C\C[C@@H]1[C@@H](/C=C/[C@@H](O)CCc2ccsc2Cl)[C@H](O)C[C@@H]1O	–	Miosis (Dog eye (miosis); 0.1%): pinpoint; Hyp (hyperemia score) (Dog eye (hyperemia); 0.1%): 1.13
> 7690	> 10000	341	> 10000	Cc1ccc(CC[C@H](O)/C=C/[C@@H]2[C@@H](C/C=C\CCCC(=O)O)[C@@H](O)C[C@H]2O)s1	–	–
16	> 10000	50	371	O=C(O)CCC/C=C\C[C@@H]1[C@@H](/C=C/[C@@H](O)CCc2cc(Br)cs2)[C@H](O)C[C@@H]1O	–	–
1000	–	–	–	O=C(O)CCC/C=C\C[C@@H]1[C@@H](/C=C/[C@@H](O)CCc2nccs2)[C@H](O)C[C@@H]1O	–	Miosis (Dog eye (miosis); 0.1%): pinpoint; Hyp (hyperemia score) (Dog eye (hyperemia); 0.1%): 0.6
28300	–	–	–	O=C(O)CCC/C=C\C[C@@H]1[C@@H](/C=C/[C@H](O)CCc2nccs2)[C@H](O)C[C@@H]1O	–	–
122	> 10000	–	3530	O=C(O)CCC/C=C\C[C@@H]1[C@@H](/C=C/[C@@H](O)CCc2sccc2Cl)[C@H](O)C[C@@H]1O	–	–
21	–	–	> 10000	CCc1ccc(CC[C@H](O)/C=C/[C@@H]2[C@@H](C/C=C\CCCC(=O)O)[C@@H](O)C[C@H]2O)s1	–	–
82	–	–	> 10000	NC(=O)CCC/C=C\C[C@@H]1[C@@H](/C=C/[C@@H](O)CCc2cc(Cl)sc2Cl)[C@H](O)C[C@@H]1O	–	Miosis (Dog eye (miosis); 0.1%): pinpoint; Hyp (hyperemia score) (Dog eye (hyperemia); 0.1%): 1.2
–	–	–	–	N#Cc1ccc(CC[C@H](O)/C=C/[C@@H]2[C@@H](C/C=C\CCCC(=O)O)[C@@H](O)C[C@H]2O)s1 [Compound 17a, 7-[3α,5α-Dihydroxy-2-(3α-hydroxy-5-(2-(5-cyano)thienyl)-1E-pentenyl)cyclopentyl]-5Z-heptenoic acid]	6.95	pEC50 (TP receptor): ~5.00
–	–	–	–	N#Cc1ccc(CC[C@H](O)/C=C/[C@@H]2[C@@H](C/C=C\CCCC(N)=O)[C@@H](O)C[C@H]2O)s1 [Compound 17b, 7-[3α,5α-Dihydroxy-2-(3α-hydroxy-5-(2-(5-cyano)thienyl)-1E-pentenyl)cyclopentyl]-5Z-heptenamide]	< 3.59	–
–	–	–	–	CC(C)OC(=O)CCC/C=C\C[C@@H]1[C@@H](/C=C/[C@@H](O)CCc2ccc(C#N)s2)[C@H](O)C[C@@H]1O [Compound 17c, Isopropyl-7-[3α,5α-Dihydroxy-2-(3α-hydroxy-5-(2-(5-cyano)thienyl)-1-E-pentenyl)cyclopentyl]-5Z-heptenoate]	5.19	–
–	–	–	–	O=C(O)CCC/C=C\C[C@@H]1[C@@H](/C=C/[C@@H](O)CCc2sccc2F)[C@H](O)C[C@@H]1O [Compound 18b]	8.54	pEC50 (TP receptor): 5.46
–	–	–	–	CS(=O)(=O)NC(=O)CCC/C=C\C[C@@H]1[C@@H](/C=C/[C@@H](O)CCc2ccc(Cl)s2)[C@H](O)C[C@@H]1O [Compound 20a, N-Methylsulfonyl-7-[3α,5α-Dihydroxy-2-(3α-hydroxy-5-(2-(5-chloro)thienyl)-1E-pentenyl)cyclopentyl]-5Z-heptenamide]	5.22	–
–	–	–	–	CCS(=O)(=O)NC(=O)CCC/C=C\C[C@@H]1[C@@H](/C=C/[C@@H](O)CCc2ccc(Cl)s2)[C@H](O)C[C@@H]1O [Compound 20b, N-Ethylsulfonyl-7-[3α,5α-Dihydroxy-2-(3α-hydroxy-5-(2-(5-chloro)thienyl)-1E-pentenyl)cyclopentyl]-5Z-heptenamide]	5.98	–
–	–	–	–	O=C(CCC/C=C\C[C@@H]1[C@@H](/C=C/[C@@H](O)CCc2ccc(Cl)s2)[C@H](O)C[C@@H]1O)NS(=O)(=O)C(F)(F)F [Compound 20c, N-Trifluoromethylsulfonyl-7-[3α,5α-Dihydroxy-2-(3α-hydroxy-5-(2-(5-chloro)thienyl)-1E-pentenyl)cyclopentyl]-5Z-heptenamide]	6.66	pEC50 (TP receptor): < 5.00
–	–	–	–	CS(=O)(=O)NC(=O)CCC/C=C\C[C@@H]1[C@@H](/C=C/[C@@H](O)CCc2ccc(I)s2)[C@H](O)C[C@@H]1O [Compound 21a, N-Methylsulfonyl-7-[3α,5α-Dihydroxy-2-(3α-hydroxy-5-(2-(5-iodo)thienyl)-1E-pentenyl)cyclopentyl]-5Z-heptenamide]	5.74	–
–	–	–	–	CCS(=O)(=O)NC(=O)CCC/C=C\C[C@@H]1[C@@H](/C=C/[C@@H](O)CCc2ccc(I)s2)[C@H](O)C[C@@H]1O [Compound 21b, N-Ethylsulfonyl-7-[3α,5α-Dihydroxy-2-(3α-hydroxy-5-(2-(5-iodo)thienyl)-1E-pentenyl)cyclopentyl]-5Z-heptenamide]	6.72	–
–	–	–	–	O=C(CCC/C=C\C[C@@H]1[C@@H](/C=C/[C@@H](O)CCc2ccc(I)s2)[C@H](O)C[C@@H]1O)NS(=O)(=O)C(F)(F)F [Compound 21c, N-Trifluoromethylsulfonyl-7-[3α,5α-Dihydroxy-2-(3α-hydroxy-5-(2-(5-iodo)thienyl)-1E-pentenyl)cyclopentyl]-5Z-heptenamide]	7.44	–
